This is an account of results in PubChem BioAssay AID651717 (Broad Institute, 2012).

This test relates to mESC Bmi1-luciferase reporter, firefly/renilla ratio, 24 h. As to the kind of experiment: Bmi1-luciferase reporter activators in mESC, dose response, esBAF inhibitor project, mouse embryonic stem cells, cherry-pick (AID 651717).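 Further: luciferase knocked into Bmi1 locus with EF-1a renilla as cell number control; rising ratio signals esBAF inhibition which derepresses Bmi1.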
For the molecule `CC(O)(c1ccccc1)c1nc(-c2cccc(C(=O)O)c2)cs1` (configuration not stated), the AC40 was 4.13 µM. `C/C(=C\C(=O)c1cccnc1)Nc1ccc(C)c(C)c1`: the AC40 was 3.36 µM. On to `CCCCCCCSc1ncnc2[nH]ncc12`, for which the AC40 is 17.1 µM. Regarding `Cc1ccc(OCc2cc(C(=O)N3CCC(c4ccccc4Cl)C3)no2)cc1C` (configuration not stated), the AC40 was 7.33 µM. `CC(=O)Nc1cnc(-c2cc(C)c(O)c(C)c2)cn1`: the AC40 was 12 µM. `COc1cccc(CN(C)C(=O)c2ccc(COc3ccc(Cl)cc3)cc2)c1OC`: the AC40 is 5.66 µM. As to `COC(=O)/C(=C1\Oc2ccc(C(C)(C)C)cc2S1)C(F)(F)F`, the AC40 was 1.45 µM.

In the case of `COc1cc(C=O)c(Br)cc1OCc1ccc(C)cc1`, the AC40 is 4.67 µM. Under `CCC(=O)c1ccc(N2CCC(C)CC2)c(F)c1` stands 2.04 µM. As to `O=C(c1noc2c1CCCC2)N1CCc2ccccc2C1`, the AC40 is 2.99 µM. For the molecule `CC(C)c1ccc(NC(=O)c2ccc3snnc3c2)cc1`, the AC40 was 3.23 µM. For `COc1ccc(S(=O)(=O)Nc2cc(C(=O)NC3CCCCCC3)ccc2N2CCOCC2)cc1`, the AC40 is 7.61 µM. For `CC(C)CN=c1cc(-c2ccccc2)oc2ccc(Cl)cc12`, the AC40 was 2.27 µM. As to `CCOC(=O)C1=C(CSc2nc(-c3ccccc3)ccc2C#N)OC(N)=C(C#N)C1c1ccccc1` (configuration not stated), the AC40 was 12.4 µM.

Turning to `COc1ccc(OCc2cc(C(=O)N(Cc3nccn3C)C(C)C)no2)c2ccccc12`, the AC40 is 3.93 µM. On to `O=C1c2ccccc2CN1c1ccccc1`, for which the AC40 was 3.89 µM. In the case of `CC(=O)n1nc(-c2ccccc2)nc1NCc1ccc(N(C)C)cc1`, the AC40 was 3.41 µM. Under `CC(=O)O/N=C(\N)c1ccc(-c2csnn2)cc1` stands 29.5 µM; under `O=C(c1c(Cl)nc2sccn12)N(C(=O)c1c(Cl)nc2sccn12)c1ccc(Cl)cn1`, 0.693 µM. As for `O=S(=O)(c1ccc2ccccc2c1)N1CCN(S(=O)(=O)c2c(F)cccc2F)CC1`, the AC40 is 1.26 µM. Take `COc1cccc(NC(=O)CN(C)C(=O)CNC(=O)c2sc3ccccc3c2Cl)c1`: the AC40 is 4.99 µM. As to `CC(=O)c1c(C)[nH]c(C(=O)OCc2ccc(Br)cc2)c1C`, the AC40 was 6.96 µM. As to `Cc1cc(C)c2nc(-c3ccccc3)ccc2c1`, the AC40 was 1.5 µM. In the case of `O=C(Cc1ccccc1F)Nc1nc(-c2ccc(F)c(F)c2)cs1`, the AC40 is 9.65 µM. As for `CN(C)c1ncnc2c1ncn2-c1ccccc1`, the AC40 is 9.34 µM. Under `Fc1ccccc1NC(=S)N1CCC(c2ccccc2)C1` (configuration not stated) stands 0.517 µM. Regarding `CC(=Nc1ccccc1O)c1sc2ccccc2c1O`, the AC40 is 3.82 µM. Consider `O=C(CCNC(=O)c1ccccc1)Nc1nc2ccccc2s1`, for which the AC40 is 3.91 µM.

Take `Cc1ccc(-c2nc(COC(=O)c3c(C)noc3C)cs2)cc1`: the AC40 was 4.93 µM. Then `Oc1cccc(/C=N/N2CCCCC2)c1O`, with 3.47 µM; and `O=C(NC1CCCCC1)c1n[nH]c2c1CC(c1ccccc1)CC2` (configuration not stated), with 0.996 µM; and `Cc1ccc(CNC(=O)C2CCC(=O)N(CCc3ccc(Cl)cc3)C2)cc1` (configuration not stated), with 5.36 µM.

On to `O=C(Nc1cccc(O)c1)c1ccc(Br)cc1`, for which the AC40 was 2.45 µM.

For the molecule `O=c1[nH]cnc2nc(-c3ccc(N(CCCl)CCCl)cc3)[nH]c12`, the AC40 was 0.965 µM.

`O=C1CCCc2cc3c(ccc4ccccc43)cc21`: the AC40 is 3.18 µM.

Turning to `O=C(c1ccncc1)N(c1ccc(N2CCOCC2)cc1)C(c1ccccc1)c1nc2ccccc2[nH]1` (configuration not stated), the AC40 was 1.01 µM. For `Cc1cc2oc(=O)cc(CN3CCC(C)CC3)c2cc1Cl`, the AC40 is 9.54 µM. With `COC(=O)Cc1csc(Nc2ccccc2Cl)n1`, the AC40 is 6.92 µM. Regarding `Cc1nc(-c2ccc(Cl)cc2)sc1C1(C)CC(c2cccnc2)=NO1` (configuration not stated), the AC40 was 5.57 µM.

Take `CCOc1ccc2nc(NC(=O)CSc3nnc(-c4ccncc4)n3CC3CCCO3)sc2c1` (configuration not stated): the AC40 was 7.34 µM. In the case of `NC(N)=NC(=O)c1nc(Cl)c(N2CCCCCC2)nc1N`, the AC40 was 3.13 µM. Take `COc1ccc(CCC(=O)N2CCc3ccccc32)cc1`: the AC40 is 5.22 µM.

Regarding `Cc1noc(C)c1C(=O)Nc1nc2ccccc2s1`, the AC40 is 3.83 µM. With `Cc1cccc(OCc2nc3ccccc3n2C)c1`, the AC40 is 6.7 µM. Take `Cc1ccc(C)c(NC(=O)c2cc(-c3cc(C)c(C)cc3O)n[nH]2)c1`: the AC40 was 3.77 µM.

Consider `O=C(Nc1ccc(F)cc1)NC1CCCCCCC1`, for which the AC40 was 12 µM. In the case of `COc1ccc(C(=O)CNc2cccc(F)c2)cc1`, the AC40 was 16.4 µM. Regarding `Cc1sc(NC(=O)c2cccs2)nc1-c1ccccc1`, the AC40 is 5.47 µM.

`COC(=O)c1ccc2[nH]c(C3(O)CCCCC3)c(C)c2c1`: the AC40 was 5.55 µM. On to `Cc1cc(F)ccc1-c1cc(C(=O)Nc2ccc(F)cc2)[nH]n1`, for which the AC40 is 0.757 µM.

As to `CS(=O)(=O)c1ccccc1C(=O)Nc1ccc(-c2nc3ccccc3[nH]2)cc1`, the AC40 is 3.96 µM.

Turning to `O=C(CCCc1ccccn1)c1ccc(-c2ccccc2)cc1`, the AC40 is 4.03 µM.

In the case of `COc1ccccc1N1C(=O)S/C(=C\c2ccc(C)s2)C1=O`, the AC40 was 1.95 µM. Then `Cc1ccc(O)c(CNc2ccccn2)c1`, with 16.7 µM.

Consider `COC(=O)c1ccc2nc(-c3cccc(Cl)c3)c(Cc3ccsc3)n2c1`, for which the AC40 is 7.98 µM. `COc1ccc(-n2nc(C(=O)NCC(=O)N3CCN(c4ccccc4)CC3)c3ccccc3c2=O)cc1OC`: the AC40 was 7.98 µM. Then `Cn1c2nc3ccccc3c-2nc2ccccc21`, with 4.33 µM; and `CCc1ccc2cc3c(cc2n1)C(=O)c1ccccc1-3`, with 2.32 µM. As to `O=C1Nc2ccccc2N=C(c2ccc3c(c2)OCO3)C1N(C(=O)c1ccc2ccccc2c1)C1CC1` (configuration not stated), the AC40 was 1.26 µM. Then `O=C(CNC(=O)c1ccccc1F)Nc1ccc2c(c1)OCO2`, with 3.55 µM; and `O=C(Nc1cccc(Cl)c1Cl)c1ccc(-c2ccccc2)cc1`, with 3.54 µM.

`CNC(=O)c1ccc(-c2ccccc2)s1`: the AC40 was 5.62 µM.

Turning to `NC(=O)c1ccc(OCc2ccccc2)nc1`, the AC40 is 5.4 µM. Then `C=CCN(C(=O)CC(NC(C)=O)c1ccccc1)c1nc(-c2ccc(S(C)(=O)=O)cc2)cs1` (configuration not stated), with 0.992 µM. In the case of `CCC1CCCCN1C(=O)c1ccc2nc(Cc3ccc(OC)cc3)oc2c1` (configuration not stated), the AC40 is 3.04 µM. Regarding `Cc1ccc(C)c(N2CCN(C(=O)CCc3nc(-c4cccc(C(F)(F)F)c4)no3)CC2)c1`, the AC40 was 7.5 µM. Under `Clc1ccc(C=NN2CCCCCC2)cc1` stands 0.983 µM; under `Cc1cc(C)cc(N(CC(=O)Nc2ccc(-c3nc4ccc(C)cc4s3)cc2)S(C)(=O)=O)c1`, 4.11 µM.

Take `C(=N\N1CCN(c2ccccc2)CC1)/c1ccccc1`: the AC40 is 4.79 µM. Take `Fc1ccc(Nc2nnc(-c3ccncc3)s2)cc1Cl`: the AC40 was 4.42 µM.

On to `c1csc(Cc2nc3ccccc3[nH]2)c1`, for which the AC40 was 16.2 µM. In the case of `O=C(c1ccncc1)N1N=C(c2ccc(Cl)cc2)CC1c1ccccc1O` (configuration not stated), the AC40 is 2.04 µM. Then `COc1ccc(-c2cc(C(=O)Nc3cccnc3)no2)cc1OC`, with 4.87 µM.

Consider `CCN(CC)C(=O)Oc1ccc2c(=O)c(-c3ccc(OC)cc3)coc2c1`, for which the AC40 is 3.7 µM. For `COC(=O)C1CCc2c(ccc3c2CCCC3)C1=O` (configuration not stated), the AC40 was 4.54 µM. `Cc1ccc(C(=O)CC(=O)c2ccccc2C)c(O)c1`: the AC40 was 9.56 µM. With `COc1ccc(-c2cn3c(C)c(C(=O)NC(C)(C)C)sc3n2)cc1`, the AC40 was 1.02 µM. Turning to `CCC(=O)c1ccc(N2CCCCCC2)c(F)c1`, the AC40 is 4.92 µM. Turning to `Cc1ccc(NC(=O)O/N=C/c2ccc(N(C)C)cc2)cc1`, the AC40 is 16.6 µM. With `COc1ccc(Cl)c(-c2cc(C(=O)Nc3ccccc3)[nH]n2)c1`, the AC40 was 0.423 µM. `O=C(COC(=O)c1cc2ccccc2oc1=O)Nc1cccc(S(=O)(=O)N2CCCCCC2)c1`: the AC40 was 12.7 µM. As to `CC(C)CC1C(=O)N(Cc2cn(CCC3OCCCO3)nn2)CCS(=O)(=O)N1Cc1ccc(-c2ccc(Cl)nc2)cc1` (configuration not stated), the AC40 was 12.9 µM. Regarding `CC(C)Nc1nc(Cl)nc(Nc2ccccc2)n1`, the AC40 was 5.89 µM. Under `O=C(N/N=C/c1ccccc1)c1ccc(NC(=O)c2ccc(F)cc2)cc1` stands 1.46 µM; under `Cc1ccccc1CNC(=O)Nc1ccc(Cl)cc1`, 15.1 µM; under `O=C(NC1CCCC1)c1cc(-c2ccc(Cl)c(Cl)c2)on1`, 2.8 µM. `COc1cccc2cc(C(=O)N3CCc4ccccc4C3)c(=O)oc12`: the AC40 was 26.9 µM. Take `NCC(=O)c1ccccc1`: the AC40 is 23 µM. As for `Cc1ccc(NC(=O)Nc2ccc(F)c(Cl)c2)cc1`, the AC40 is 1.85 µM. Under `Cc1cc(Cl)nc(NC(=O)Nc2cccc(Cl)c2)n1` stands 0.66 µM; under `Cc1nn(Cc2c(F)c(F)c(F)c(F)c2F)c(C)c1NC(=O)c1ccc(COc2cc(Cl)ccc2Cl)cc1`, 3.23 µM. Under `O=C(NNC(=O)c1cccc2ccccc12)c1ccc(Cl)cc1Cl` stands 12.7 µM.

Regarding `Nc1ccc2c(c1)Cc1cc(N)c(Cl)cc1-2`, the AC40 is 3.41 µM.

`Cc1noc(C)c1-c1csc(N2CCC(C(N)=O)CC2)n1`: the AC40 is 0.444 µM.

`CC(=O)Nc1ccccc1OCc1nnc(-c2ccc(Cl)cc2)o1`: the AC40 was 8.95 µM. In the case of `Cc1ccnc(NCc2cc(C)ccc2O)c1`, the AC40 was 12.8 µM. As to `Clc1ccc(/C=N/Nc2nc(Cl)nc3ccccc23)cc1`, the AC40 was 1.35 µM. As for `O=C(NC1CCCC1)c1cc(-c2ccccc2O)on1`, the AC40 was 1.65 µM. For the molecule `O=C(NCc1ccc2c(c1)OCO2)Nc1cccc(Cl)c1`, the AC40 is 7.4 µM.

Take `Cc1nc2c(sc3nc4c(cc32)COC(C)(C)C4)c(=O)n1Cc1ccccc1`: the AC40 was 1.18 µM. Then `Cc1cccc(Nc2nc(-c3sc(C)nc3C)cs2)c1`, with 2.71 µM; and `O=C(Nc1cccc(F)c1)c1c(O)c2ccccc2[nH]c1=O`, with 1.29 µM. Regarding `COc1ccc(-c2nc(C#N)c(NC(C)C)o2)cc1`, the AC40 is 2.38 µM. As for `Nc1cccc(N=[N+]([O-])c2cccc(N)c2)c1`, the AC40 is 2.11 µM.

On to `O=C(O)c1ccc2noc(-c3ccccc3)c2c1`, for which the AC40 is 1.54 µM. `CC(C)N1CC2(CC(c3ccccc3F)=NO2)CN1C(=O)c1ccc(C(C)(C)C)cc1` (configuration not stated): the AC40 is 4.08 µM. Then `Cc1ccnc(NC(=O)c2ccc(OCc3c(C)noc3C)cc2)c1`, with 3.44 µM.
